According to PMC6760105, “Construction of a novel quinoxaline as a new class of Nrf2 activator” (BMC Chemistry, 2019):

Tests used:
[1] = system: RAW 264.7 cells; test: PGE2 production, ELISA, LPSEc stimulated cells; format: cell-based; details: Mus musculus, RAW264.7, LPSEc (1 µg/mL) stimulated RAW 264.7 cells
Method: (§1) Murine macrophages, cell line: RAW 264.7 was procured from ATCC, USA. The macrophage cells were grown and cultured in Dulbecco’s Modified Eagle Medium (DMEM) supplemented with 10% Fetal Bovine serum (FBS) and 1% PenStrep and incubated in a 5% CO2 at 37 °C incubator. Cells from passages 10 to 20 were used for subsequent experiments.
(§2) Production of IL-1β, IL-6, PGE2− and TNF-α in RAW 264.7 cells were quantitatively measured using an enzyme-linked immunosorbent assay (ELISA). The cells were incubated with 0.1% DMSO or NQC for 4 h, then stimulated with LPSEc, 1 µg/mL, for 20 h. The production of pro-inflammatory cytokines (IL-1β, IL-6) and TNF-α were determined using commercial ELISA kit (RayBio) according to the manufacturer’s instructions in product insert. The absorbance was measured at 540 nm. All the experiments were performed in triplicate.

[2] = Microsomal metabolic stability, rat liver microsomes; format: in vitro ADME; details: NQC 1 µM
Method: (§3) A stock solution (SS) of NQC at 1 mM was prepared using 100% dimethyl sulfoxide. Working solution of 10 μM was further prepared by dilution of SS with 25% ACN and 50 mM tris–HCl buffer (pH 7.4). In a 96-well plate, NQC (effective concentration:1 µM) was incubated with phosphate buffer (pH7.4) and 0.5 mg/mL of liver microsomes (human, rat and mouse) at 37 °C in an incubation. Each NQC incubation with liver microsomes was performed in triplicates. The microsomal metabolic reaction was initiated by the addition of co-factor, NADPH (5 mM). Samples following the allotted time-point was drawn and quenched into a solution of acetonitrile containing 50 ng/mL internal standard. The sample was analysed by a developed HPLC method that has been validated for lower limit of quantification, linearity, precision, selectivity and accuracy according to FDA guidance.
(§4) Half-life of NQC was calculated using the equation: T1/2=0.693/K.
(§5) The in vitro microsomal intrinsic clearance (CLint) was calculated based on the equation below: Clint=0.693/invitrot(1/2)×mlincubation/mgmicrosome×52.5mgmicrosome/gliver×[…].

[3] = system: RAW 264.7 cells; test: MTT cell viability assay; format: cell-based, mouse; details: for cytotoxic effects on RAW 264.7 cells (MTT): LPSEc stimulated
Method: as §1
A calorimetric agent (3-(4,5-Dimethylthiazol-2-yl)-2,5-Diphenyltetrazolium Bromide) (MTT) was used to as an assay to determine cell viability after being exposed to NQC. RAW 264.7 cells were seeded in a 96-well microplate at 3 × 10^5 cells/well and were allowed to grow and adhere for 24 h in a 37 °C, 5% CO2 incubator. NQC was dissolved in DMSO and diluted with PBS to produce the required test concentrations (100, 50, 25, 12.5, 6.25 and 3.125 µM). The negative control is 0.1% (v/v) DMSO, which is the maximum effective concentration of DMSO in a well. The cells were treated with either NQC or 0.1% (v/v) DMSO for 4 h followed by 1 µg/mL LPSEc and incubated further for 20 h. MTT solution was added at 100 µL per well under dark condition and the cells were incubated further for 4 h. Upon completion of incubation, the contents in all wells were aspirated and DMSO was added at 100 µL per well. The absorbance was measured at 570 nm using Molecular Devices Spectramax M3 Multi-Mode microplate reader; Sunnyvale, CA, USA. The cells without any treatment was used as a control. MTT assay was performed in triplicate. The percent cell viability is calculated using the following equation: PercentCellViabilty=AbsorbanceofVehicleorTD-1treatedgroupwell/AbsorbanceofControlwell×100.

[4] = Microsomal metabolic stability, mouse liver microsomes; format: in vitro ADME; details: NQC 1 µM
Method: as §3, §4, §5

[5] = system: RAW 264.7 cells; test: Nitric oxide (nitrite) production, Griess reagent, LPSEc stimulated cells; format: cell-based; details: Mus musculus, RAW264.7; LPSEc (1 µg/mL) stimulated RAW 264.7 cells; 4 h pretreatment, 20 h LPS; read-out: IC50, NO production
Method: as §1
RAW 264.7 cells were seeded in a 96-well microplate at 3 × 10^5 cells/well with complete media. The cells were allowed grow and adhere for 24 h. The cells were treated with NQC (50, 25, 12.5, 6.25 and 3.125 µM) and negative control (0.1% v/v DMSO in water) for 4 h prior to LPSEc (1 µg/mL) and allowed to incubate for 20 h at 37 °C, 5% CO2 incubator. Nitrite exist as a stable metabolite of nitric oxide, thus nitrite present in the supernatant was quantitatively measured as a chemical marker of nitric oxide (NO) production using Griess reagent (Promega, USA; 0.1% naphthylethylenediamine dihydrochloride and 1% sulfanilamide in 2.5% phosphoric acid). This assay was carried out following the manufacturer’s protocol where 100 µL of cell supernatant sample was incubated with 100 µL of Griess reagent at room temperature for 10 min and the absorbance at 540 nm was measured using Molecular Devices Spectramax M3 Multi-Mode microplate reader. […]

[6] = Microsomal metabolic stability, human liver microsomes; format: in vitro ADME; details: NQC 1 µM
Method: as §3, §4, §5

[7] = system: RAW 264.7 cells; test: TNF-α production, ELISA, LPSEc stimulated cells; format: cell-based; details: Mus musculus, RAW264.7, LPSEc (1 µg/mL) stimulated RAW 264.7 cells
Method: as §1, §2

[8] = molecular target: T1, Nrf2-Keap1 interaction (Homo sapiens, UniProt Q14145); test: Keap1:Nrf2 Inhibitor Screening Assay Kit (Nrf2 activation assay); format: binding; details: fluorescence λex 485 nm, λem 530 nm; 100 µM to 1 nM; read-out: IC50, inhibition of Nrf2-Keap1 interaction
T1 construct: purchased BPS Bioscience, USA
Method: The Nrf2 activation by NQC was determined using ‘Keap1:Nrf2 Inhibitor Screening Assay Kit’ (BPS Bioscience, USA) following the instructions in product insert. The NQC was dissolved in DMSO and diluted with assay buffer provided in the kit to produce the concentrations range, 100 µM to 1 nM. The fluorescence of the solutions in each well of 96-well plate was measured at λex 485 nm and λem 530 nm. The dose–response curve was constructed plotting percent reduction in Kepa1-Nrf2 binding activity versus log concentration of NQC. From dose–response curve IC50 value was calculated.

[9] = system: RAW 264.7 cells; test: IL-6 production, ELISA, LPSEc stimulated cells; format: cell-based; details: Mus musculus, RAW264.7, LPSEc (1 µg/mL) stimulated RAW 264.7 cells
Method: as §1, §2

[10] = system: RAW 264.7 cells; test: IL-1β production, ELISA, LPSEc stimulated cells; format: cell-based; details: Mus musculus, RAW264.7, LPSEc (1 µg/mL) stimulated RAW 264.7 cells
Method: as §1, §2

T1 sequence (Q14145 whole entry): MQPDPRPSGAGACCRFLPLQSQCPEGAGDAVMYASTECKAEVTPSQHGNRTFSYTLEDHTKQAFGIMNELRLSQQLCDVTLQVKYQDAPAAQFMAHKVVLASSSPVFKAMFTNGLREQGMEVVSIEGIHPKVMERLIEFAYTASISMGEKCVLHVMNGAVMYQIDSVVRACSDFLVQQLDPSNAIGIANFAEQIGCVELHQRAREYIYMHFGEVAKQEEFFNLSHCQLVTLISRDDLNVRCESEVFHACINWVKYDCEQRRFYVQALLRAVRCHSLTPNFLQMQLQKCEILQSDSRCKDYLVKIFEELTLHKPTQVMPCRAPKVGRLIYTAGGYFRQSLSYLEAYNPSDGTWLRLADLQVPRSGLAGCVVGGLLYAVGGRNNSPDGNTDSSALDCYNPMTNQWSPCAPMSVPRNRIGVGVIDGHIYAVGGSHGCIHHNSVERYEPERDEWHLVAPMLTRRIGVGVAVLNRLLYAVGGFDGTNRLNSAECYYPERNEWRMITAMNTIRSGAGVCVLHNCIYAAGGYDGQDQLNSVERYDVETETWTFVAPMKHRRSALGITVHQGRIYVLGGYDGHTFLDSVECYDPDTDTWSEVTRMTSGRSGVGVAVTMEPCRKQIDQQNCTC

O=C(NNC(=O)c1cnc2ccccc2n1)c1cccnc1 [NQC, N′-(Pyridine-3-carbonyl)quinoxaline-2-carbohydrazide]
IC50 [1]: 15.2 ± 0.91 µM
T1/2 ([2]; rat liver microsomes 0.5 mg/mL, NADPH, 37 °C): 52.23 ± 0.81 min
Rate of metabolism ([2]; rat liver microsomes): 0.013 min⁻¹
microsomal intrinsic clearance (CLint) ([2]; rat liver microsomes): 1.39 ± 0.87 mL/min/g liver
mCint (microsomal intrinsic clearance) ([2]; rat liver microsomes, Table 1): 1.39 ± 0.87 mL/min/g liver
half-life at 1 µM ([2]; rat, liver microsomes, pH 7.4, rat liver microsomes 0.5 mg/mL, NADPH, 37 °C): 52.3 ± 0.81 min
cytotoxic effects on RAW 264.7 cells (MTT) ([3]; 100 µM, P < 0.05): significant toxicity
cytotoxic effects on RAW 264.7 cells (MTT) ([3]; 3.125–50 µM, P > 0.05): do not show cytotoxic effects
toxicity on RAW 264.7 cells ([3]; dose of 50 µM): non-toxic
Rate of metabolism ([4]; mouse liver microsomes): 0.028 min⁻¹
microsomal intrinsic clearance (CLint) ([4]; mouse liver microsomes): 2.96 ± 0.34 mL/min/g liver
mCint (microsomal intrinsic clearance) ([4]; mouse liver microsomes, Table 1): 2.96 ± 0.34 mL/min/g liver
half-life at 1 µM ([4]; pH 7.4, mouse liver microsomes 0.5 mg/mL, NADPH, 37 °C): 24.6 ± 1.13 min
IC50 [5]: 26.1 ± 1.17 µM
Rate of metabolism ([6]; human liver microsomes): 0.011 min⁻¹
microsomal intrinsic clearance (CLint) ([6]; human liver microsomes): 1.14 ± 0.31 mL/min/g liver
mCint (microsomal intrinsic clearance) ([6]; human liver microsomes, Table 1): 1.14 ± 0.31 mL/min/g liver
half-life at 1 µM ([6]; pH 7.4, human liver microsomes 0.5 mg/mL, NADPH, 37 °C): 63.3 ± 1.73 min
IC50 [7]: 14.4 ± 1.83 µM
IC50 [8]: 4.21 ± 0.89 µM
IC50 [9]: 10.1 ± 0.58 µM
IC50 [10]: 13.3 ± 2.37 µM
